This is an account of results in patent publication US12161647B2, “Treating hearing loss” (Massachusetts Eye and Ear Infirmary, priority 2012, dated 2024).

Structures are written as SMILES.

In this experiment the test system is deafened mature cochlea. The experiment is described as follows: Hair cell and supporting cell counts in deafened mature cochlea after round window administration. The format is in vivo, mouse. On the procedure:
4-week-old mice were exposed free-field, awake and unrestrained, in a small reverberant chamber (22). Acoustic trauma was produced by a 2 h exposure to an 8-16 kHz octave band noise presented at 116 dB SPL. The exposure stimulus was generated by a custom white-noise source, filtered (Brickwall Filter with a 60 dB/octave slope), amplified (Crown power amplifier), and delivered (JBL compression driver) through an exponential horn fitted securely to a hole in the top of a reverberant box.
4-week-old mice weighing 12 to 16 g were used. Before surgery, the animals were anesthetized with ketamine (20 mg/kg, i.p.) and xylazine (100 mg/kg, i.p.), and an incision was made posterior to the pinna near the external meatus after local administration of lidocaine (1%). The otic bulla was opened to approach the round window niche. The end of a piece of PE 10 tubing (Becton Dickinson) was drawn to a fine tip in a flame and gently inserted into the round window niche. LY411575 was dissolved in DMSO and diluted 10-fold in polyethylene glycol 400 (Sigma) to a final concentration of 4 mM. This solution (total volume 1 μl) was injected into the round window niche of the left ear. Polyethylene glycol 400 with 10% DMSO was injected into the right ear as a control. The solution was administered for 2 min. This approach is presently used clinically (e.g. transtympanic injection of steroids for sudden hearing loss and gentamicin for severe balance disorders) and has the advantage of sparing the […] but still taking advantage of the local route provided by the round window membrane for delivery of drug into the inner ear (50). Gelatin was placed on the niche to maintain the solution, and the wound was closed.
For collection of mature mouse cochleae, after being deeply anesthetized with ketamine and xylazine, the mice were transcardially perfused with 0.01 M phosphate buffer (pH 7.4) containing 8.6% sucrose, followed by fixative consisting of freshly depolymerized 4% paraformaldehyde in 0.1 M phosphate buffer (pH 7.4). After decapitation, the temporal bones were removed and immediately placed in the same fixative at 4° C. Small openings were made at the round window, oval window, and apex of the cochlea. […] Primary antibodies were detected with secondary antibodies conjugated with Alexa 488, 568, and 647 (Molecular Probes) and viewed by confocal fluorescence microscopy (TCS SP5, Leica). […]
Cell counting for spheres was performed with MetaMorph software. The cell number was determined from DAPI- or Hoechst-positive nuclei. […] For explants, inner hair cells, outer hair cells, and supporting cells in the outer hair cell region were counted on cochlear whole mounts. […]

In the case of `C[C@H](NC(=O)[C@@H](O)c1cc(F)cc(F)c1)C(=O)N[C@@H]1C(=O)N(C)c2ccccc2-c2ccccc21` [LY411575, N-2((2S)-2-(3,5-difluorophenyl)-2-hydroxyethanoyl)-N1-((7S)-5-methyl-6-oxo-6,7-dihydro-5H-dibenzo[b,d]azepin-7-yl)-l-alaninamide], the “numbers of inner hair cells” value (3 months, treated group) is reported as “no significant changes”. The “number of outer hair cells compared to carrier-treated contralateral ear” value (3 months, 8-16 kHz, p<0.05) is “increased”. Further, the “number of supporting cells in the outer hair cell region compared to carrier-treated ear” value (3 months, 8 and 11.3 kHz areas, p<0.05) is recorded as “decreased significantly”. The “outer hair cells in the most basal regions” value (above 22 kHz, with and without LY411575) was “completely absent”.
